Assay results as given in ChEMBL document CHEMBL3507680, “University of Dundee, Gates Library screen for HepG2 cell viability”.

Test: Human HepG2 cell viability assay in 384 well format
Format: toxicity, cell-based
Design: dose 125 nL, time 70.5 hour; cytotoxicity at 70.5 h: concentration not given beside the values
Conditions: HepG2 cells, read-out: Inhibition

SMILES | cytotoxicity at 70.5 h [%]
O=C(NC1CCCC1)c1nc2c(o1)CN(CCO)C2 | -0.956
Cc1nc2c(c(NC3CCN(Cc4ccccc4)CC3)n1)CCNCC2 | 0.337
Cc1cc(CNC(=O)c2ccc(C(C)N3CCCCC3)o2)[nH]n1 (centres undefined) | -5.86
O=C(Nc1cc(-c2ccncc2)no1)C1CC1 | -10.1
Cc1cc(C)nc(N2CCc3ccc(OC(F)F)cc3C2)n1 | -2.64
O=C1NCCCC12CCN(Cc1ccc(-c3ccccc3)s1)C2 (centres undefined) | 7.11
Cc1nonc1CC(=O)N1C[C@@H]2CC[C@H](C1)N(Cc1ccccc1)C2=O | 8.97
CNc1cncc(C2CCCN2C(=O)c2ccc3c(c2)OCCO3)n1 (centres undefined) | 20.5
Cc1cccc(C(=O)N2C[C@@H]3CCN(C(C)C)C[C@@H]3C2)c1 | 19
CCCN(Cc1cnc2ccccc2n1)Cc1ccccc1OC | -7.09
CC(C(=O)N1CCCN(Cc2cnn(C)c2)CC1)n1ccnc1 (centres undefined) | 23.2
CC(=O)N1CCCN(C(=O)NCc2ccc(-c3ccn[nH]3)cc2)CC1 | -4.56
Cc1cccnc1N1CC2(CCN(Cc3cccnc3)C2)C1 | 16.3
O=C(CN1CCOC(Cn2cccn2)C1)Nc1nccs1 (centres undefined) | -16.1
COCC(=O)Nc1ccc(Sc2nncn2C)c(Cl)c1 | 10.4
N#Cc1ccnc(N2CCC(c3nccn3Cc3cscn3)CC2)c1 | 31.3
O=C(NCC(O)c1ccc(F)cc1F)c1cccnc1O (centres undefined) | -15.5
c1csc(C(CNCc2cccc3c2OCO3)N2CCOCC2)c1 (centres undefined) | -13.2
COc1ncccc1CNC(=O)c1cccnc1O | -8.53
Cc1cc(-c2cnc(NC3CC3)nc2-c2ccoc2)on1 | 2.18
CN(C)[C@@H]1CO[C@H](CNC(=O)c2cccs2)[C@H]1O | -8.01
CCOCc1ncn2c1CN(C(=O)Nc1cccc(F)c1)CC2 | -13.3
N#Cc1ncn(CC(=O)N2CCCC2c2cccs2)n1 (centres undefined) | 22.9

SMILES | cytotoxicity at 70.5 h [%]
CC(C)N1C(=O)CC(NC(=O)c2cc(Cl)sc2Cl)C1=O (centres undefined) | -8.84
COc1ccc(CNC(=O)N2CCC(Cc3cnn(C)c3)C2)cc1C (centres undefined) | -3.46
Cc1ccccc1N1CCCN(C(=O)CN2C(=O)OC[C@@H]2C(C)C)CC1 | 25.8
CN(Cc1ccncc1)C1COC2(CCN(c3ncc(F)cn3)CC2)C1 (centres undefined) | -1.66
CNc1ncccc1C(=O)N1CCC2(CCN(C)C2)CC1 | 2.78
CCCc1nc(CN2CCCC2Cn2cncn2)no1 (centres undefined) | -6.08
COc1ccc(Nc2cc(C)nc(C)n2)cc1N1CCCC1=O | -7.1
Cc1cc(C)nc(N2CCC(CNC(=O)c3cnccn3)CC2)n1 | 3.07
c1cncc(COC[C@@H]2CCC[C@]23CNCCO3)c1 | 0.77
CN(C)C(=O)N1C[C@@H]2CC[C@H](C1)N(C(=O)CCCn1cncn1)C2 | -10.6
O=C1COc2cc(C(=O)NS(=O)(=O)c3cccc(Cl)c3)ccc2N1 | -19.1
Cn1ccc(C(=O)Nc2nnc(-c3ccccn3)[nH]2)cc1=O | -22.2
CC1COCCN1C(=O)c1ccc(=O)n(CCOc2ccccc2)n1 (centres undefined) | -5.11
Cn1ccc(CS(=O)(=O)Cc2ccccc2)cc1=O | -12.9
CC(C)n1nc(Cn2cccn2)c2c1CN(CC1CCOC1)C2 (centres undefined) | -4.31
COCCOCCNC(=O)c1cccc(Cn2nc(C)cc2C)c1 | 34.2
CCn1nc(C)cc1C(=O)N1C[C@H]2CCC[C@@]2(COc2ccccn2)C1 | -7.77
OCc1csc(N2C[C@@H](CN3CCCCCC3)[C@@H](CO)C2)n1 | -7.86
O=C1O[C@@H]2CN(c3cnccn3)C[C@@H]2N1CCCc1ccc(F)cc1 | -7.8
CC(C)CN1Cc2nc(N3CCCC(C)C3)ncc2C1=O (centres undefined) | -9.32
Cc1cc(CC(C)Nc2ncnc3cccc(F)c23)[nH]n1 (centres undefined) | 2.32
N#Cc1c[nH]c(C(=O)N(Cc2ccc(O)cc2)CC2CC2)c1 | -2.25
Cc1ccc(C(=O)N2CC[C@H]3[C@H]2CCN3CC2CCOCC2)cn1 | -9.27

SMILES | cytotoxicity at 70.5 h [%]
CCNC(=O)NC(=O)CN(CC(C)O)c1ccccc1 (centres undefined) | -7.42
O=C(Cc1ccccc1Cl)Nc1ccn(CCN2CCOCC2)n1 | -12.9
CCOC1CCN(C(=O)NCCN(C)C(=O)OC(C)(C)C)CC1 | -3.79
Cc1nc(N2CCC(CN3CCCC3)CC2)c2cnn(C)c2n1 | -2.49
Cc1cnn(CC2CCCN2C(=O)CCc2cscn2)c1 (centres undefined) | -13.6
CCOCC(=O)NCc1cc(C2CC2)n(C2CCCC2)n1 | 0.0223
CCO[C@@H]1CC[C@H]2[C@H]1OCCN2C(=O)c1nn(C)c2ccccc12 | 2.67
CCc1nc(C2CCCN2CC(=O)Nc2nnc(C)s2)no1 (centres undefined) | -13.4
CCS(=O)(=O)CCN1CCC(N(C)Cc2ncc(C)o2)C1 (centres undefined) | 0.306
Cc1ccc(-c2nc(CN3CCCC3Cn3cncn3)cs2)o1 (centres undefined) | -2.7
Cc1noc(C)c1CCCNC(=O)C1CCN(C(=O)C2CC2)CC1 | 24.8
CC(C)(C)c1ncc(C(=O)NCCNC(=O)c2ccccc2)s1 | 1.17
COCC(=O)N1CCC(c2cc(C(F)(F)F)n3ccnc3n2)CC1 | -8.3
Cc1n[nH]c(=O)c(C(=O)N2CCN(CCc3cccs3)CC2)c1C | -2.36
CC(C)n1cc(C(=O)NCC(CO)Cc2cccs2)cn1 (centres undefined) | -8.73
O=C(c1ccco1)N1CCCC2(CN(Cc3cccs3)CCO2)C1 (centres undefined) | 1.5
CN(C)C1(CNC(=O)C/C=C/c2ccc(F)cc2)CCOCC1 | 22.9
CC1=N[C@@]2(CC[C@@H]3CN(CC(C)C)C[C@@H]32)C(=O)N1 | -4.43
CC(=O)N1CCC2(CC1)[C@@H]1CN(Cc3cccnc3)C[C@@H]1C(=O)N2C | 18.5
O=C1CN(C(=O)c2ccc(F)cc2)CC(O)CN1Cc1cccs1 (centres undefined) | 1.6
COC[C@@]12CCO[C@@H]1CCN(C(=O)Cc1cccc(F)c1)C2 | 2.86
CN(Cc1ccc(Cl)s1)C(=O)NCCN1CCCCCC1=O | -3.32
O=C(CCC1CCCO1)NCc1ccnc(-n2cccn2)c1 (centres undefined) | 23.5

SMILES | cytotoxicity at 70.5 h [%]
CCOC(=O)C1CC2(CCCC2)N2CCC(=O)N12 (centres undefined) | 0.137
CC1N(c2cnn(C)c2)C(=O)COC12CCN(Cc1ccco1)CC2 (centres undefined) | -3.36
CCCN(C)CC1CCN(c2ncc(Br)cn2)C1 (centres undefined) | 2.13
O=C1CCC2(CCCN(CCn3cc(Cl)cn3)C2)CN1C1CCCC1 (centres undefined) | -19.7
CC(CCc1ccco1)NC(=O)Nc1cc(C(F)(F)F)c[nH]c1=O (centres undefined) | 0.203
O=C(Nc1nnc(N2CCCCC2)[nH]1)c1cccs1 | -0.727
Cc1ccc2c(C)c(C(=O)NCc3csc(N)n3)oc2c1 | -13
Cc1nc2c(c(N(C)CC3Cc4ccccc4CN3C)n1)CCNCC2 (centres undefined) | 11.4
Cc1cc(C)c(CNc2ncnc3c2cnn3C)c(=O)[nH]1 | -11.1
CCCc1n[nH]c(C2CN(CCCS(=O)(=O)N(C)C)CCO2)n1 (centres undefined) | -4.5
COC(C)(C)Cn1ccnc1-c1cccc(C(C)N(C)C)c1 (centres undefined) | -7.08
CCCn1nc(C)c(CNC(=O)c2snnc2C)c1C | -13.1
CC(Cn1cccn1)NC(=O)CCC(=O)c1cccs1 (centres undefined) | -11.2
CN(Cc1ccco1)C(=O)CN1CCCC1Cn1cncn1 (centres undefined) | 3.18
Cc1c(CCC(=O)Nc2ccc(Br)cn2)cnn1C | -5.19
NCC(CO)Cc1ccc(OC(F)(F)F)cc1 (centres undefined) | -5.55
COc1c(CNC2CCc3cc(F)ccc32)c(C(C)C)nn1C (centres undefined) | 16.8
CC(=O)Nc1cccc([C@H]2C[C@@H](NC(C)=O)CCO2)c1 | 13.2
Cc1csc(CN2CC[C@H]3C[C@H](c4nnc(C)[nH]4)O[C@@H]3C2)n1 | 20.1
COCCC1(CO)CCCN(C(=O)c2cccnc2O)C1 (centres undefined) | -3.89
CCc1ccccc1NC(=O)c1cccc(N(C)S(C)(=O)=O)c1C | -4.65
COc1cccc(C2SCC(=O)Nc3ccsc32)c1 (centres undefined) | 0.777
Cc1cc(F)c(S(=O)(=O)NCCCN2CCC(O)CC2)cc1F | 7.32

SMILES | cytotoxicity at 70.5 h [%]
CCOCC1CN(C(=O)c2cccnc2)Cc2cnn(C)c21 (centres undefined) | -9.4
CCS(=O)(=O)N1CCc2ccc(=O)n(CC3CC3)c2CC1 | -9.39
Cc1ccc(N2CC3(COCCN(Cc4nccs4)C3)OCC2=O)s1 (centres undefined) | -10.7
Cc1cccc(C(=O)N(C)Cc2cc(Br)cs2)n1 | -27.1
Cc1cc(Nc2ccc(F)cn2)cc(C2CCCN2)n1 (centres undefined) | -7.05
Cn1ncc2c(N3CCC3)nc(-c3ccncc3)nc21 | 4.72
c1ccc(Sc2ccc3c(c2)OCO3)c(CNC2=NCCN2)c1 | -0.794
COc1ccc(-c2noc([C@@H]3C[C@@H](O)CN3C3CCOCC3)n2)cc1 | 41.8
c1ccc(-c2nccc(N3CCc4c(ncn4C4CC4)C3)n2)cc1 | -17.8
CCn1ccnc1CN1CCCN(C(=O)c2cc[nH]n2)CC1 | 0.0306
COCc1ccc(C(=O)N2CC[C@@](O)(COC)C(C)(C)C2)o1 | -6.95
Cn1ccnc1CN1CCN(CC(O)c2ccc(F)cc2)CC1 (centres undefined) | -3.86
Cc1nc(C)c(C(=O)N2Cc3ccccc3OCC2CN(C)C)o1 (centres undefined) | 1.45
CCc1nnc2n1CCN(C(=O)c1cc3cc(C)ccc3[nH]1)C2 | -13.6
O=C(c1n[nH]c2c1CCN(Cc1nccs1)C2)N1CCOCC1 | 4.7
Cc1nc(CN2CCCC(CCc3ccc(F)cc3F)C2)c[nH]1 (centres undefined) | -1.86
Cc1noc(C)c1CN1CC[C@H]2OCC[C@@H](C(=O)N3CCCO3)[C@@H]2C1 | -14.6
Cc1nnc(N2CCCC3(CN(Cc4cnn(C)c4)CCO3)C2)o1 (centres undefined) | -5.09
COc1cccc(N2Cc3nc(=O)[nH]n3C2=O)c1 | -16.5
CNC(=O)C1Cc2ccccc2CN1CCCc1ccccc1 (centres undefined) | -4.46
O=C(Nc1nccs1)NC1CCN(CC2CCCC2)CC1 | -13.1
COc1ccc(OC)c(CNc2c(O)c(=O)c2=O)c1 | -21.2
